Laboratory results as given in the NIST ThermoML archive (doi:10.1021/je300382a).
Numbers after ± are expanded uncertainties.

Columns and labels:
[1] = Ring tensiometer
[2] = refractive index (Na D-line) (dimensionless); conditions: 101.33 kPa, Liquid, Standard Abbe refractometry
[3] = xn = mol fraction of the nth substance listed; conditions: Ring tensiometer, x2 = 0
[4] = refractive index (Na D-line) (dimensionless); xn = mol fraction of the nth substance listed; conditions: 101 kPa, Liquid, Standard Abbe refractometry, x2 = 0

surface tension liquid-gas ([1]; 283.15 K) [mN/m] | surface tension liquid-gas ([1]; 293.15 K) [mN/m] | surface tension liquid-gas ([1]; 303.15 K) [mN/m] | surface tension liquid-gas ([1]; 313.15 K) [mN/m] | surface tension liquid-gas ([1]; 323.15 K) [mN/m] | refractive index ([2]; 283.15 K) | refractive index ([2]; 293.15 K) | refractive index ([2]; 303.15 K) | refractive index ([2]; 313.15 K) | refractive index ([2]; 323.15 K) | surface tension liquid-gas ([3]; 283.15 K) [mN/m] | surface tension liquid-gas ([3]; 293.15 K) [mN/m] | surface tension liquid-gas ([3]; 303.15 K) [mN/m] | surface tension liquid-gas ([3]; 313.15 K) [mN/m] | surface tension liquid-gas ([3]; 323.15 K) [mN/m] | refractive index ([4]; 283.15 K) | refractive index ([4]; 293.15 K) | refractive index ([4]; 303.15 K) | refractive index ([4]; 313.15 K) | refractive index ([4]; 323.15 K) | Structure (SMILES)
35 ± 0.5 | 33.8 ± 0.5 | 32.7 ± 0.5 | 31.4 ± 0.5 | 30.3 ± 0.5 | 1.451 ± 0.0004 | 1.4458 ± 0.0004 | 1.4409 ± 0.0004 | 1.4362 ± 0.0004 | 1.4314 ± 0.0004 | – | – | – | – | – | – | – | – | – | – | CC(N)CN (stereo not given) [1,2-propanediamine]
37.9 ± 0.6 | 37.1 ± 0.5 | 36.3 ± 0.5 | 35.6 ± 0.5 | 35 ± 1 | 1.5516 ± 0.0004 | 1.5445 ± 0.0004 | 1.5393 ± 0.0004 | 1.5328 ± 0.0004 | 1.5279 ± 0.0004 | – | – | – | – | – | – | – | – | – | – | NCc1ccccc1 [benzylamine]
– | – | – | – | – | – | – | – | – | – | 74.2 ± 0.9 | 72.6 ± 0.9 | 71.3 ± 0.9 | 69.2 ± 0.9 | 67.7 ± 0.9 | 1.3343 ± 0.0003 | 1.333 ± 0.0003 | 1.3319 ± 0.0003 | 1.3306 ± 0.0003 | 1.329 ± 0.0003 | O [water] + CC(N)CN
– | – | – | – | – | – | – | – | – | – | 74.2 ± 0.9 | 72.6 ± 0.9 | 71.1 ± 0.9 | 69.2 ± 0.9 | 67.7 ± 0.9 | 1.3343 ± 0.0003 | 1.333 ± 0.0003 | 1.3319 ± 0.0003 | 1.3306 ± 0.0003 | 1.329 ± 0.0003 | O [water] + NCc1ccccc1
